Experimental data reported in patent US8232315B2, “Methods for treating drug addiction and improving addiction-related behavior” (SK Biopharmaceuticals Co., Ltd., priority 2009, dated 2012).
Entries after “also recorded” stand apart in the source; their conditions may differ. Read-outs that look alike come from different tables or passages of the source.

Key:
[1] = test system: rats trained to discriminate cocaine (10 mg/kg) from saline; experiment: Substitution for the discriminative stimulus effects of cocaine in rats (two-lever drug discrimination); assay type: in vivo, Sprague-Dawley rats; conditions: for ED50: Rattus norvegicus, linear regression against log10 doses from 10 to 100 mg/kg
Protocol: Test compound was tested for its ability to substitute for the discriminative stimulus effects of cocaine (10 mg/kg) in rats.
Six male Sprague-Dawley rats were trained to discriminate cocaine (10 mg/kg) from saline using a two-lever choice methodology. Food was available as a reinforcer under a fixed ratio 10 schedule when responding occurred on the injection appropriate lever. All tests occurred in standard, commercially available chambers (Coulbourn Instruments), using 45 mg food pellets (Bioserve) as reinforcers.
Training sessions occurred in a double alternating fashion, and tests were conducted between pairs of identical training sessions (i.e., between either two saline or two cocaine training sessions). Tests occurred only if, in the two preceding training sessions, subjects met the criteria of emitting 85% of responses on the injection correct lever for both the first reinforcer (first fixed ratio) and the total session. Test sessions lasted for twenty minutes, or until twenty reinforcers had been obtained. Doses of the test compound for which fewer, than three rats completed the first fixed ratio were not considered in the characterization of discriminative stimulus effects.
Intraperitoneal injections (1 ml/kg) of test compound, or its vehicle (0.9% saline), occurred 60 minutes prior to the start of the test session. A starting dose for test compound of 2.5 mg/kg was determined based upon data supplied by the project officer, and a dose range of 2.5 to 100 mg/kg was examined.

[2] = test system: rhesus monkeys trained to self-administer cocaine; experiment: Cocaine self-administration, dose-ranging studies with peak unit dose of i.v. cocaine and food components; assay type: in vivo, rhesus monkeys (Macaca mulatta)
Protocol: (§1) The test compound (O-carbamoyl-(D)-phenylalaminol) was tested for the effects on cocaine self-administration in rhesus monkeys. Rhesus monkeys were trained to self-administer cocaine (0.032 mg/kg/inj, i.v.) and 1 g banana-flavored food pellets during 2-hr experimental sessions in the Rapid Assessment Procedure. Each session consisted of four 20-min components of drug availability (100-min), each separated by a 5-min timeout period. The four components of drug availability were preceded and followed by […] components of food availability. During training, unit doses of cocaine were varied across components of the session (0.001-0.03 or 0.01-0.32 mg/kg/inj) to provide full dose effect curves for cocaine self-administration. The position and slope of the dose-effect curve varied among monkeys and, generally, was represented by an inverted-U shape function characteristic for cocaine self-administration under fixed-ratio schedules. In some sessions, the unit dose of cocaine at the peak of the dose-effect curve for i.v. self-administration (0.0032 or 0.032 mg/kg/inj) was kept constant across components of the session. After baseline cocaine dose-effect curves and the effects of peak dose availability throughout the session were stable, experiments with test compound were begun.
Two types of cocaine self-administration experiments were conducted to evaluate pretreatment with test compound: (1) test compound dose-ranging studies and (2) effects of a single dose of test compound on cocaine dose-effect curves. In initial dose-ranging experiments, test compound was studied in individual monkeys by administering i.m. doses of 10-32 mg/kg 30-min before the session.
(§2) Subjects. Five male rhesus monkeys (Macaca mulatta), 89B013, 96D155, 97D105, RQ22 15, and 93N082, were trained to respond for the delivery of 1-g banana pellets under a program of gradually increasing values of a fixed-ratio (FR) schedule until performance was maintained under the terminal FR 30 response schedule. Then, a double-lumen intravenous catheter was surgically implanted under aseptic-conditions in each monkey. Subsequently, monkeys were trained to respond for cocaine (see below). All monkeys were maintained under identical housing conditions as specified under contract DA-7-8073. Individual monkeys had visual, auditory, and olfactory contact with other monkeys, and several types of enrichment devices were provided in the home chamber.
(§3) Apparatus. All experimental equipment was identical to that used in our previously described drug self-administration studies. Briefly, each monkey was housed individually in a well-ventilated stainless steel chamber (64×64×79 cm). The home cages of all monkeys were modified to include an operant panel (28×28 cm) mounted on the front wall and fitted with response keys that could be trans-illuminated by red or green stimulus lights (LEDs). The operant panel also supported an externally-mounted pellet dispenser (Gerbrands, Model G5210) that delivered 1 gm fruit-flavored food pellets (P. J. Noyes Co., Lancaster, N.H.) to a food receptacle mounted on the cage beneath the operant response panel. Two syringe pumps (Model B5P-IE, Braintree Scientific, Braintree, Mass.; or Model 980210, Harvard Apparatus, South Natick, Mass.) were mounted above each cage for delivery of saline or drug solutions through the double-lumen intravenous catheters. Operation of the operant panels and data collection were accomplished with an LBM-compatible computer supplied by Med Associates, Inc., and located in an adjacent room. The experimental control hardware was supplied by Med Associates, Inc., and was controlled by customized-software written in MedState Notation.
(§4) Test sessions. A diagram of the Rapid Assessment Procedure is shown in the drawing. Test sessions occurred twice daily beginning at 11 a.m. and 3 p.m. […]

[3] = test system: rhesus monkeys trained to self-administer cocaine; experiment: Cocaine self-administration, Rapid Assessment (Rapid Dose Effect) Procedure, cocaine dose-effect curve; assay type: in vivo, rhesus monkeys (Macaca mulatta)
Protocol: as §1
Next, the Rapid Assessment Procedure was used to evaluate the effects of a single i.m. dose of test compound on self-administration of a range of unit doses of cocaine within a single experimental session. […] During rapid assessment studies, food-maintained behavior was disrupted in two monkeys and unaffected in the remaining two monkeys, resulting in a >50% decrease in averaged response rates prior to or following sessions of cocaine self-administration.
as §2, §3, §4

[4] = 32 mg/kg i.m. pretreatment, averaged for the group
[5] = 32 mg/kg i.m., monkeys 96D155, 93N082 and 97D105

In the case of `NC(=O)OC[C@H](N)Cc1ccccc1` [test compound, O-carbamoyl-(D)-phenylalaminol], the ED50 ([1]; i.p. 60 min before session, read-out: ED50, substitution for the discriminative stimulus effects of 10 mg/kg cocaine, total session) is reported as 37.4 mg/kg, the ED50 ([1]; ip, read-out: ED50, substitution for cocaine, first reinforcer) is reported as 37.5 mg/kg and the “Substitution for the discriminative stimulus effects of 10 mg/kg cocaine” value ([1]; dose range 2.5 to 100 mg/kg i.p.) is reported as “substituted fully; also recorded: fully substituted”. For the same compound, the “Response rate, % of vehicle control, first reinforcer” value ([1]; following 100 mg/kg i.p.) was 37%, the “Response rate, % of vehicle control, total session” value ([1]; following 100 mg/kg i.p.) was 41% and the “Effect on i.v. cocaine self-administration behavior” value ([2]; 10 mg/kg i.m., any of the four monkeys) was “did not alter”. For the same compound, the “Effect on self-administration of the peak unit dose of i.v. cocaine” value ([2]; 10 mg/kg i.m., averaged for the group) was “did not have consistent effects; also recorded: without appreciable effect”, the “Food-maintained performance, Food 1 and Food 2” value ([2]; 10 mg/kg i.m., monkeys 89B013 and RQ2215) was “unchanged” and the “Food-maintained responding, Food 2” value ([2]; 10 mg/kg i.m., monkeys 96D155 and 93N082) was “decreased food-maintained responding”. The “Food-maintained behavior, Food 1” value ([2]; 18 mg/kg i.m., any monkey) was “not appreciably affected”, the “Decrease in self-administration of the peak unit dose of i.v. cocaine” value ([2]; 18 mg/kg i.m., monkey 89B013) was “approximately 50%” and the “Food-maintained behavior, Food 2” value ([2]; 18 mg/kg i.m., monkeys 89B013 and 93N082) was “greatly decreased”. The “Food-maintained behavior, Food 2” value ([2]; 18 mg/kg i.m., monkeys 96D155 and RQ2215) was “did not change behavior”, the “Effect on i.v. self-administration behavior” value ([2]; 18 mg/kg i.m., remaining three subjects) was “did not appreciably alter” and the “Decrease in self-administration of the peak unit dose of i.v. cocaine” value ([2]; 32 mg/kg i.m. 30 min before session, averaged for the group of monkeys) was “approximately 50%”. For the same compound, the “Effect on food-maintained behavior” value ([2]; 32 mg/kg i.m. (18 or 32 mg/kg), prior to or following cocaine components) was “without consistently disrupting food-maintained behavior; also recorded: did not consistently alter”, the “Effect on self-administration of the peak unit dose of i.v. cocaine” value ([2]; 32 mg/kg i.m., averaged for the group) was “markedly decreased” and the “Reduction of self-administration of the peak unit dose of i.v. cocaine” value ([2]; 32 mg/kg i.m., each of the three monkeys studied) was no less than 50%. For the same compound, the “Food-maintained performance, Food 1 and Food 2” value ([2]; 32 mg/kg i.m., monkey 93N082) was “markedly decreased”, the “Food-maintained responding, either food component” value ([2]; 32 mg/kg i.m., monkeys 96D155 and RQ2215) was “did not alter responding” and the “Effect on food-maintained behavior” value ([2]; pretreatment doses 10-32 mg/kg i.m., averaged for the group, dose-ranging studies) was “only inconsistent effects”. For the same compound, the “Displacement of the descending portion of the cocaine dose-effect curve” value ([3]; 32 mg/kg i.m.) was “leftward and upward displacement”, the “Effect on responding during availability of saline or low unit doses of i.v. cocaine (0.001-0.01 mg/kg)” value [3, 4] was “either increased or did not change response rates; also recorded: increased responding” and the “Effect on self-administration of higher unit doses of i.v. cocaine (0.032-0.32 mg/kg)” value [3, 4] was “decreased cocaine self-administration behavior”. For the same compound, the “Decrease in food-maintained responding (averaged response rates), Food 1 and Food 2” value ([3]; 32 mg/kg i.m., averaged for the group, rapid assessment) was greater than 50%, the “Decrease in food-maintained responding, Food 1” value ([3]; 32 mg/kg i.m., monkey RQ2215) was 40% and the “Responding during availability of saline or unit doses of i.v. cocaine 0.001-0.032 mg/kg/injection” value ([3]; 32 mg/kg i.m., monkey RQ2215) was “inconsistently increased”. For the same compound, the “Responding during availability of unit doses of 0.1 and 0.32 mg/kg cocaine” value ([3]; 32 mg/kg i.m., monkey RQ2215) was “unchanged”, the “Food-maintained responding, Food 1” value ([3]; 32 mg/kg i.m., monkeys 93N082 and 97D105) was “nearly eliminated” and the “Effect on i.v. self-administration during availability of higher unit doses of cocaine” value [3, 5] was “reduced i.v. self-administration behavior”. The “Effect on responding during availability of saline or low unit doses of cocaine (0.001-0.01 mg/kg)” value [3, 5] was “increased responding” and the “Food-maintained responding, Food 2” value [3, 5] was “nearly eliminated”.
